# Measurements: ChEMBL document CHEMBL4842333, “Catechol-Bearing Polyketide Derivatives from Sparticola junci” (2021)
# Calls of active or inactive are those of the source. The calls are words filed in the database; no cut-off is given here.
# Key:
# Staphylococcus aureus = assay: Antibacterial activity against Staphylococcus aureus DSM346 assessed as inhibition of bacterial growth by broth microdilution method; format: functional
# Bacillus subtilis = assay: Antibacterial activity against Bacillus subtilis DSM10 assessed as inhibition of bacterial growth by broth microdilution method; format: functional
# [1] = tested on: Chromobacterium violaceum; assay: Antibacterial activity against Chromobacterium violaceum DSM30191 assessed as inhibition of bacterial growth by broth microdilution method; format: functional
# Escherichia coli = assay: Antibacterial activity against Escherichia coli DSM1116 assessed as inhibition of bacterial growth by broth microdilution method; format: functional
# Kocuria rhizophila = assay: Antibacterial activity against Kocuria rhizophila DSM1790 assessed as inhibition of bacterial growth by broth microdilution method; format: functional
# Candida albicans = assay: Antifungal activity against Candida albicans DSM1665 assessed as inhibition of fungal growth by broth microdilution method; format: functional, organism-based
# Mucor hiemalis = assay: Antifungal activity against Mucor hiemalis DSM2656 assessed as inhibition of fungal growth by broth microdilution method; format: functional, organism-based
# Wickerhamomyces anomalus = assay: Antifungal activity against Pichia anomala DSM6766 assessed as inhibition of fungal growth by broth microdilution method; format: functional, organism-based
# Rhodotorula glutinis = assay: Antifungal activity against Rhodotorula glutinis DSM1034 assessed as inhibition of fungal growth by broth microdilution method; format: functional, organism-based
# [2] = tested on: Schizosaccharomyces pombe; assay: Antifungal activity against Schizosaccharomyces pombe DSM70572 assessed as inhibition of fungal growth by broth microdilution method; format: functional, organism-based
# L929 = assay: Cytotoxicity against mouse L929 cells assessed as cell growth inhibition incubated for 5 days by MTT assay; format: functional, cell-based; conditions: time 5.0 day
# KB 3-1 = assay: Cytotoxicity against human KB 3-1 cells assessed as cell growth inhibition incubated for 5 days by MTT assay; format: functional, cell-based; conditions: time 5.0 day
# A-431 = assay: Cytotoxicity against human A-431 cells assessed as cell growth inhibition incubated for 5 days by MTT assay; format: functional, cell-based; conditions: time 5.0 day
# A549 = assay: Cytotoxicity against human A549 cells assessed as cell growth inhibition incubated for 5 days by MTT assay; format: functional, cell-based; conditions: time 5.0 day
# SK-OV-3 = assay: Cytotoxicity against human SK-OV-3 cells assessed as cell growth inhibition incubated for 5 days by MTT assay; format: functional, cell-based; conditions: time 5.0 day
# PC-3 = assay: Cytotoxicity against human PC-3 cells assessed as cell growth inhibition incubated for 5 days by MTT assay; format: functional, cell-based; conditions: time 5.0 day
# MCF7 = assay: Cytotoxicity against human MCF7 cells assessed as cell growth inhibition incubated for 5 days by MTT assay; format: functional, cell-based; conditions: time 5.0 day
# [3] = tested on: Mycolicibacterium smegmatis; assay: Antimycobacterial activity against Mycobacterium smegmatis ATCC700084 assessed as inhibition of mycobacterial growth by broth microdilution method; format: functional
Compound,MIC (Staphylococcus aureus) [µg/mL],Activity (L929),Activity (KB 3-1),Activity (A-431),Activity (A549),Activity (SK-OV-3),Activity (PC-3),Activity (MCF7),further results
CN(C)[C@@H]1C(O)=C(C(N)=O)C(=O)[C@@]2(O)C(O)=C3C(=O)c4c(O)cccc4[C@@](C)(O)[C@H]3[C@H](O)[C@@H]12.Cl [OXYTETRACYCLINE HYDROCHLORIDE],0.1,,,,,,,,MIC (Bacillus subtilis): 4.2 µg/mL; MIC [1]: 0.4 µg/mL; MIC (Escherichia coli): 1.7 µg/mL; MIC (Kocuria rhizophila): 0.4 µg/mL
NYSTATIN,,,,,,,,,MIC (Candida albicans): 2.1 µg/mL; MIC (Mucor hiemalis): 8.3 µg/mL; MIC (Wickerhamomyces anomalus): 2.1 µg/mL; MIC (Rhodotorula glutinis): 1 µg/mL; MIC [2]: 16.7 µg/mL
O=C(O)C[C@H](O)C1(c2cccc(O)c2O)Oc2cccc3cccc(c23)O1,66.6,inactive,inactive,inactive,inactive,inactive,inactive,inactive,
COC(=O)C[C@H](O)C1(c2cccc(O)c2O)Oc2cccc3cccc(c23)O1,66.6,inactive,inactive,inactive,inactive,inactive,inactive,inactive,
NC[C@H]1O[C@H](O[C@H]2[C@H](O)[C@@H](O[C@H]3O[C@H](CO)[C@@H](O)[C@H](N)[C@H]3O)[C@H](N)C[C@@H]2N)[C@H](N)[C@@H](O)[C@@H]1O [BEKANAMYCIN],,,,,,,,,MIC [3]: 2.1 µg/mL
